Target: T1, WC-1/WC-2 (White Collar Complex) (Neurospora crassa, UniProt Q01371)
T1 construct: in vitro transcribe/translate full-length WC-1 using pAF60 as template and full length WC-2 using pGEM®/WC-2 as template; made in house; host or cells: cell-free: TNT-Coupled Reticulocyte Lysate system (Promega), templates pAF60 (WC-1) and pGEM/WC-2
Assay: Electrophoretic mobility shift assay of in vitro-translated WC-1 and WC-2 binding to frq LRE probe, with or without flavin cofactor and light
Conditions: for Average amount of faster migrating complex ± SEM / Average amount of slower migrating complex ± SEM: +FAD (1 mM in translation reaction), in vitro-translated WC-1 and WC-2, densitometry; for Light regulation of LRE binding of in vitro-translated WC-1/WC-2: flavin added to the WC-1 translation reaction, 1 mM
Procedure: In vitro coupled transcription/translation was conducted to produce WC-1 and WC-2 proteins for subsequent use in binding reactions. WC-1 and WC-2 together were able to bind to the LREs as not just one, but two distinct complexes with mobilities similar to those seen using nuclear extracts. […] These complexes were not seen when either protein was used alone or when unprogrammed lysate was used.
In vitro translation experiments and subsequent binding reactions were repeated, this time adding FMN or flavin adenine dinucleotide (FAD) to the WC-1 translation reaction. FAD is the flavin cofactor for both the blue light-sensing cryptochromes (Cashmore, et al. (1999) Science 284:760) and the Euglena photoactivated adenyl cyclase (Iseki, et al. (2001) Nature 415:1047).
When FAD was combined with WC-1 and WC-2, light caused a marked increase in the amount of slower migrating complex relative to the reactions not treated with light. Furthermore, a marked increase in the slower migrating complex was observed, as compared to reactions lacking FAD treated with or without light. […] The addition of FAD confers light responsiveness to the WCC, similar to that seen with the nuclear extracts. In the dark, a faster migrating WC-1/WC-2 dimeric complex dominates, yielding in the presence of light to a larger, slower migrating WC-1/WC-2 multimeric complex. WC-1 with FAD, exposed to light in the absence of WC-2, can initiate the mobility shift when subsequently combined in the dark with WC-2. Furthermore, WC-1 can be reconstituted with free FAD after in vitro translation. Thus, it is WC-1 that is the initial active protein partner in mediating the photoresponse.
The probes consisted of two oligonucleotides of equal length annealed together and end-labeled using T4 polynucleotide kinase and [^γ-32P]ATP. Unincorporated ATP was removed using a BIO-GEL® P-30 chromatography column (BIO-RAD®, Hercules, Calif.), and probe was diluted to a final concentration of 0.018 μM. Oligonucleotide pairs were annealed for use as probe or unlabeled competitor. Distal LRE probe, the unrelated 42 bp competitor, and the mutated distal LRE competitor were generated with oligonucleotide pairs ACF57/ACF58, ACF40/ACF48 and ACF67/ACF68, respectively. The proximal LRE probe and mutated proximal LRE competitor were generated with oligonucleotide pairs ACF62/ACF63 and ACF69/ACF70, respectively.
Binding reactions using nuclear protein extracts contained 1× binding buffer, […], 0.1 μg poly(dI-dC), 1 μl probe, 0.5 μl of normal rabbit sera (Pocono Rabbit Farm, Canadensis, Pa.), and 3 μg of nuclear protein extract, which was added last to the binding reactions, in a total volume of 20 μl. In reactions that contained antisera, 1 μl anti-WC-1, 1 μl anti-WC-2, or 0.5 μl anti-FRQ was used. Binding reactions using in vitro translated proteins contained 1× binding buffer, 1 μg poly(dI-dC), 1 μl probe, and 6 μl of the in vitro translation reaction in a total volume of 20 μl . Binding reactions were incubated for 30 minutes on ice prior to electrophoresis at 4° C. on nondenaturing 4% polyacrylamide gels containing 0.5×TBE and 2.5% (v/v) glycerol. Gels were dried and visualized using a PhosphorImager and IMAGEQUANT® software (Molecular Dynamics, Sunnyvale, Calif.). Binding reactions and gel electrophoreses were performed under red lights.
TNT®-Coupled Reticulocyte Lysate system (PROMEGA®, Madison, Wis.) was used according to the manufacturer's directions to in vitro transcribe/translate full-length WC-1 using pAF60 as template and full length WC-2 using pGEM®/WC-2 as template. 8 μM ZnCl2 was added to each reaction. Where indicated, FAD (SIGMA®, St. Louis, Mo.) and FMN (SIGMA®, St. Louis, Mo.) were added to a final concentration of 1 mM. Reactions were conducted under red lights.

T1 sequence (Q01371 whole entry): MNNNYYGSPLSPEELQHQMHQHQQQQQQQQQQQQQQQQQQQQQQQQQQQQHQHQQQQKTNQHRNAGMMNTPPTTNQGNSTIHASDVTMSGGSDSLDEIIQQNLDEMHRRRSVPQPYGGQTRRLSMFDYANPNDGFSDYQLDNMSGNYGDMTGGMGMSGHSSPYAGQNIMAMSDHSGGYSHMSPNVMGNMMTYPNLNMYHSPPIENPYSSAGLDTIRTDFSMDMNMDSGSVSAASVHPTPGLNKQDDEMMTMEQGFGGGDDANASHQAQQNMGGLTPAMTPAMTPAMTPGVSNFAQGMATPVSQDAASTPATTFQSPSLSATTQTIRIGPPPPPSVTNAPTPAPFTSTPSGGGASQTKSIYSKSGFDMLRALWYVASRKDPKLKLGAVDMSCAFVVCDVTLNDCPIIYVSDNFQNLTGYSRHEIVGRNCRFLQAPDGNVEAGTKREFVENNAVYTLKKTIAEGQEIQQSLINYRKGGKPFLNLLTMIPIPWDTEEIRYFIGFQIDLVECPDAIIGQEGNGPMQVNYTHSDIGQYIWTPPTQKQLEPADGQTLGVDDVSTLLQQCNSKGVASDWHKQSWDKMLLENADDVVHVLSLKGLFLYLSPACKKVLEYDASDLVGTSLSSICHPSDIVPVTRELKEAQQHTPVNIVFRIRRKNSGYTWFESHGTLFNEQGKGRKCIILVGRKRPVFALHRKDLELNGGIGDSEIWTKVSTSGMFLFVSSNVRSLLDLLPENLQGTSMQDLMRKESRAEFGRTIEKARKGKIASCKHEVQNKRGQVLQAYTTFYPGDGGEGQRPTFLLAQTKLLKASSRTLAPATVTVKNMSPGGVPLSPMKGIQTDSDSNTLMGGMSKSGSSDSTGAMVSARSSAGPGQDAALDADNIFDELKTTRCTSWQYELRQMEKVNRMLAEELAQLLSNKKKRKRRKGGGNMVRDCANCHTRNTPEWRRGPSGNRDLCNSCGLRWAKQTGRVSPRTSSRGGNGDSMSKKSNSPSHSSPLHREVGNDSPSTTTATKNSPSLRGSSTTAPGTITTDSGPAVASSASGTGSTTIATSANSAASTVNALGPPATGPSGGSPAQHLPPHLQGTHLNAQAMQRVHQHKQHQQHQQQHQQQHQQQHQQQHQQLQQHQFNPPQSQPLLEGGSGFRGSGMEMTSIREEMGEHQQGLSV
T1 sequence (P78714 whole entry, further chain): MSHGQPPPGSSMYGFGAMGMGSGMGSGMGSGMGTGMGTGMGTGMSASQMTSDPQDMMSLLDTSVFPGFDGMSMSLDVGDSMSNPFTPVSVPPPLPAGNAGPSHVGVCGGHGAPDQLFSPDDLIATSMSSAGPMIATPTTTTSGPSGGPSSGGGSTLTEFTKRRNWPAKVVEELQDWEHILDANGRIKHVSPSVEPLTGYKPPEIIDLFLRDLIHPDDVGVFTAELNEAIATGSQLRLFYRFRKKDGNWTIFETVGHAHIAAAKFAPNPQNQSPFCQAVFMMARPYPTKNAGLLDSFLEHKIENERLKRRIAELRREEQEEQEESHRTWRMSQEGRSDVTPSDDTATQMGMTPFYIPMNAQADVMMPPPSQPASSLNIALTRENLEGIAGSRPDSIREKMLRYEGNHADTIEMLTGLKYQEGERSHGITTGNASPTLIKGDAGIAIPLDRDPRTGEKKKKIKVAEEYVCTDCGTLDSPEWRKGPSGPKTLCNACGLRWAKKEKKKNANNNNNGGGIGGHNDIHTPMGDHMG

Row | Compound | Average amount of faster migrating complex ± SEM (Dark) | Average amount of slower migrating complex ± SEM (Dark) | Average amount of faster migrating complex ± SEM (Light) | Average amount of slower migrating complex ± SEM (Light) | Light regulation of LRE binding of in vitro-translated WC-1/WC-2
1 | Cc1cc2nc3c(=O)[nH]c(=O)nc-3n(C[C@H](O)[C@H](O)[C@H](O)COP(=O)(O)OP(=O)(O)OC[C@H]3O[C@@H](n4cnc5c(N)ncnc54)[C@H](O)[C@@H]3O)c2cc1C [FAD, flavin adenine dinucleotide] | 334119 ± 43086 | 56912 ± 3055 | 264723 ± 22687 | 237163 ± 9706 | conferred light sensitivity
2 | Cc1cc2nc3c(=O)[nH]c(=O)nc-3n(C[C@H](O)[C@H](O)[C@H](O)COP(=O)(O)O)c2cc1C [FMN, flavin mononucleotide] |  |  |  |  | No light regulation of binding
